From US11059819B2, “Fused hetero-hetero bicyclic compounds and methods of use thereof” (Araxes Pharma LLC, priority 2017, dated 2021)

biological target: T1, KRAS G12C 1-169, his-tagged protein, GDP-loaded (Homo sapiens, UniProt P01116, G12C); assay: Biochemical assay: covalent modification of KRAS G12C measured by mass spectrometry (RapidFire/TOF or Q-Exactive); format: binding; details: compound concentration and incubation time not given
T1 construct: KRAS G12C 1-169, his-tagged protein, GDP-loaded
Description: Test compounds are prepared as 10 mM stock solutions in DMSO (Fisher cat #BP-231-100). KRAS G12C 1-169, his-tagged protein, GDP-loaded is diluted to 2 μM or 0.5 μM in buffer (20 mM Hepes, 150 mM NaCl, 1 mM MgCl2). Compounds are tested for activity as follows:
Compounds are diluted to 50× final test concentration in DMSO in 96-well storage plates. Compound stock solutions are vortexed before use and observed carefully for any sign of precipitation. Dilutions are as follow: • For 100 μM final compound concentration, compounds are diluted to 5000 μM (5 μL 10 mM compound stock+5 μL DMSO and mixed well by pipetting. • For 30 μM final compound concentration, compounds are diluted to 1500 μM (3 μI, 10 mM compound stock+17 μL DMSO) and mixed well by pipetting. • For 10 μM final compound concentration, compounds are diluted to 500 μM (2 μL 10 mM compound stock+38 μL DMSO) and mixed well by pipetting. 49 μL of the stock protein solution is added to each well of a 96-well PCR plate (Fisher cat #1423027). 1 μl of the diluted 50× compounds are added to appropriate wells in the PCR plate using 12-channel pipettor. Reactions are mixed carefully and thoroughly by pipetting up/down with a 200 μL multi-channel pipettor. […] The plate is then resealed with aluminum seal and stored on dry ice until analyzed as described below.
The above described assays are analyzed by mass spectrometry according to one of the following two procedures: […]
After another 30 minute equilibration time, a blank batch (i.e., buffer) is run to ensure equipment is operating properly. […] The method is then run and masses of each individual well recorded. […]
The masses and peak intensities of KRAS G12C protein species are measured using a Dionex RSLCnano system (Thermo Scientific) connected to a Q Exactive Plus mass spectrometer (Thermo Scientific). […]
The mass spectrometer is operated in profile mode at a resolution of 17500, 5 microscans, using 50 msec max injection time and an AGC target of 1×10^6, and a full mass range from 800-1850 m/z is recorded. […]

T1 sequence (P01116 1-169 isoform P01116-2 G12C): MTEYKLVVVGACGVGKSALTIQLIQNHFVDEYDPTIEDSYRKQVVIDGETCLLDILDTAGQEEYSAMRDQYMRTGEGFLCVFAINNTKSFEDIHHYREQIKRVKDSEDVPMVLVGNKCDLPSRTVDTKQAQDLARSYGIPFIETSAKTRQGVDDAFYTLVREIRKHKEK

| Compound | Binding % |
| --- | --- |
| C=CC(=O)N1CC(n2cnc3c(Nc4cc(O)cc5ccccc45)cncc3c2=O)C1 [Compound 56, 3-(1-acryloylazetidin-3-yl)-8-((3-hydroxynaphthalen-1-yl)amino)pyrido[4,3-d]pyrimidin-4(3H)-one] | + (+ indicates binding activity up to 5%) |
| C=CC(=O)N1CC(n2cnc3c(Nc4c(C)ccc5cn[nH]c45)cncc3c2=O)C1 [Compound 55, 3-(1-acryloylazetidin-3-yl)-8-((6-methyl-1H-indazol-7-yl)amino)pyrido[4,3-d]pyrimidin-4(3H)-one] | + (+ indicates binding activity up to 5%) |
| C=CC(=O)N1CC(n2cc(C)c3cncc(Nc4c(C)ccc5[nH]ncc45)c3c2=O)C1 [Compound 57, 2-(1-acryloylazetidin-3-yl)-4-methyl-8-((5-methyl-1H-indazol-4-yl)amino)-2,6-naphthyridin-1(2H)-one] | + (+ indicates binding activity up to 5%) |
